Where a name gives a salt, the structure may show the parent alone.
Assays:
[1] = molecular target: T1, Rat brain protein farnesyltransferase (Rattus norvegicus, UniProt Q02293+Q04631); assay: In vitro inhibition of protein farnesyltransferase, Amersham scintillation proximity assay with biotin-K Ras B fragment; type: biochemical; details: Inhibition of farnesyltransferase; for inhibition at 1 µM: compound at 1 × 10^−6 M (Table 2), read-out: % inhibition at 1 × 10^−6 M; for inhibition at 10 µM: compound at 1 × 10^−5 M (Table 1)
T1 construct: The enzyme is purified according to Reiss, Y., et al., Cell, 62: 81-88 (1990), utilizing steps one through three; from tissue; host or cells: rat brain

[2] = test system: geranylgeranyltransferase I; assay: Inhibition of geranylgeranyltransferase I (glass fiber filter binding assay, H-Ras-CVLL, 3H-GGPP); type: biochemical, bovine; details: for Activity: % inhibition at 1 × 10^−7 M: compound at 1 × 10^−7 M (Table 5); for Activity: % inhibition at 1 × 10^−5 M: compound at 1 × 10^−5 M (Table 5); for Activity: % inhibition at 1 × 10^−6 M: compound at 1 × 10^−6 M (Table 5)
Excerpt: The ability of the compounds of the invention to inhibit protein farnesyltransferase or protein geranylgeranyltransferase can be measured according to the method of Moores, et al., J. Biol. Chem. 266: 14603 (1991) or the method of Vogt, et al., J. Biol. Chem. 270:660-664 (1995). In addition, procedures for determination of the inhibition of farnesylation of the oncogene protein Ras are described by Goldstein, et al., J. Biol. Chem., 266:15575-15578 (1991) and by Singh in U.S. Pat. No. 5,245,061.
Additional methods for the measurement of in vitro inhibition of protein prenylation (i.e., inhibition of farnesyltransferase or geranylgeranyltransferase) are described below.
Assays are performed using the glass fiber filter binding assay procedure with either rabbit reticulocyte lysate or Frase or GGTase I fractions isolated from bovine brains using a combination of hydrophobic and DEAE column chromatography procedures. Protein substrates are purchased from Panvera Corporation (H-ras for FTase, H-ras-CVLL for GGTase I). Tritium labeled prenyl lipid substrates (FPP or GGPP) are obtained from Amersham Life Science.
^3H-geranylgeranyldiphosphate (final concentration 0.5 μM), H-Ras-CVLL (final concentration 5.0 μM) and the test compound (various final concentrations from a stock solution in 1:1 DMSO/water; final concentration DMSO <2%) were mixed in buffer (50 mM Tris-HCl (pH 7.2), 30 mM MgCl2, 20 mM KCl, 10 μM ZnCl2, 5 mM DTT, 0.01% Triton X-100) to give a final volume of 50 μL. The mixture was brought to 37° C., treated with enzyme, and incubated for 30 minutes. 1 mL of 1 M HCl/ethanol was added to stop the reaction, and the mixture was allowed to stand for 15 minutes at room temperature then diluted with 2 mL of ethanol. The reaction mixture was filtered through a 2.5 cm glass microfiber filter from Whatman and washed with four 2 mL portions of ethanol. The glass filter was transferred to a scintillation vial, and 5 mL scintillation fluid was added. The radioisotope retained on the glass fiber filter was counted to reflect the activity of the enzymes. The IC50 value was calculated by measuring the activity of the enzyme over a suitable range of inhibitor concentrations.

| inhibition at 1 µM [1] | Activity: % inhibition at 1 × 10^−6 M [2] | SMILES | also measured |
| --- | --- | --- | --- |
| > 50% | – | Cc1ccccc1-c1cc(NCc2c[nH]cn2)ccc1C(=O)N[C@@H](CC(C)C)C(=O)O [Example 962, N-[4-(Imidazol-4-ylmethylamino)-2-(2-methylphenyl)benzoyl]leucine Hydrochloride] | Activity: % inhibition at 1 × 10^−7 M [2]: >50% inhibition at 1 × 10^−7 M |
| – | – | CC(C)C[C@H](NC(=O)c1ccc(CNCc2c[nH]cn2)cc1-c1cccc2ccccc12)C(=O)O [Example 955, N-[4-(Imidazol-4-ylmethylaminomethyl)-2-naphth-1-ylbenzoyl]leucine] | inhibition at 10 µM [1]: 50%; Activity: % inhibition at 1 × 10^−7 M [2]: >50% inhibition at 1 × 10^−7 M |
| 92% | – | CSCC[C@H](NC(=O)c1ccc(COc2cccnc2)cc1Oc1ccccc1)C(=O)O [Example 157, [4-(3-Pyridyloxymethylene)-2-phenoxybenzoyl]methionine] | melting point: 195 °C |
| – | – | CC(C)C[C@H](NC(=O)c1ccc(NCc2ccncc2)cc1-c1cccc2ccccc12)C(=O)O [Example 969, N-[4-(Pyrid-4-ylmethylamino)-2-naphth-1-ylbenzoyl]leucine] | Activity: % inhibition at 1 × 10^−5 M [2]: >50% inhibition at 1 × 10^−5 M |
| – | – | O=C(N[C@@H](CC1CCCCC1)C(=O)O)c1ccc(NCc2c[nH]cn2)cc1-c1cccc2ccccc12 [Example 974, N-[4-(Imidazol-4-ylmethylamino)-2-naphth-1-ylbenzoyl]cyclohexyalanine] | inhibition at 10 µM [1]: > 50%; Activity: % inhibition at 1 × 10^−5 M [2]: >50% inhibition at 1 × 10^−5 M |
| > 50% | >50% inhibition at 1 × 10^−6 M | Cc1cc(C)cc(-c2cc(NCc3cnc[nH]3)ccc2C(=O)N[C@@H](CC(C)C)C(=O)O)c1 [Example 399] | – |
| – | >50% inhibition at 1 × 10^−6 M | CC(C)C[C@H](NC(=O)c1ccc(NCc2ncc[nH]2)cc1-c1cccc2ccccc12)C(=O)O [Example 966, N-[4-(Imidazol-2-ylmethylamino)-2-naphth-1-ylbenzoyl]leucine] | – |
| – | >50% inhibition at 1 × 10^−6 M | CC(C)C[C@H](NC(=O)c1ccc(NCc2ncc[nH]2)cc1-c1ccccc1)C(=O)O [Example 953, N-[4-(Imidazol-2-ylmethylamino)-2-phenylbenzoyl]leucine] | melting point: 156 to 160 °C |
| > 50% | >50% inhibition at 1 × 10^−6 M | CC(C)C[C@H](NC(=O)c1ccc(OCCn2ccnc2)cc1-c1ccccc1)C(=O)O [Example 964, N-[4-(2-Imidazol-1-ylethoxy)-2-phenylbenzoyl]leucine] | – |
| – | >50% inhibition at 1 × 10^−6 M | CC(C)C[C@H](NC(=O)c1ccc(NCc2c[nH]cn2)cc1-c1ccccc1)C(=O)O [Example 967, N-[4-(Imidazol-4-ylmethylamino)-2-phenylbenzoyl]leucine] | – |
